Results taken from ChEMBL document CHEMBL3885861, “Open TG-GATES”.

Organism: Rattus norvegicus
Assay: Open TG-GATES - Regimen: Daily Repeat
Assay type: toxicity, organism-based, Sprague-Dawley
Set-up: regimen Daily Repeat, gender Male, age 6 weeks
Conditions: in vivo, po, route gavage; for ALT / AST / BUN / CRE / Ca / Cl / DBIL / GLC / IP / K / LDH / Na / PL / RALB / TBIL / TC / TG / TP / gamma-GTP / A/G / ALP: tissue Plasma; for APTT / Bas / Eos / Fbg / Hb / Ht / Lym / MCH / MCHC / MCV / Mono / Neu / PT / Plat / RBC / Ret / WBC: tissue Blood; for KIDNEY_L / KIDNEY_R / KIDNEY_TOTAL: tissue Kidney; for LIVER: tissue Liver
[1] = 30 mg/kg, […], dose level Low, time 14 day
[2] = 30 mg/kg, […], dose level Low, time 28 day
[3] = 100 mg/kg, 72 h, dose level Middle, time 3 day
[4] = 100 mg/kg, […], dose level Middle, time 7 day
[5] = 100 mg/kg, […], dose level Middle, time 14 day
[6] = 100 mg/kg, […], dose level Middle, time 28 day
[7] = 300 mg/kg, 72 h, dose level High, time 3 day
[8] = 300 mg/kg, […], dose level High, time 7 day
[9] = 300 mg/kg, […], dose level High, time 14 day

Q: What does the source list for `CCc1cc(C(N)=S)ccn1` [ETHIONAMIDE]?
A: ALT [1]: 34.8 IU/L; AST [1]: 62.4 IU/L; BUN [1]: 17.6 mg/dL; CRE [1]: 0.5 mg/dL; Ca [1]: 10.8 mg/dL; Cl [1]: 104.4 meq/L; DBIL [1]: 0.026 mg/dL; GLC [1]: 206.6 mg/dL; IP [1]: 7.2 mg/dL; K [1]: 4.4 meq/L; LDH [1]: 95.4 IU/L; Na [1]: 142.2 meq/L; PL [1]: 152.2 mg/dL; RALB [1]: 4.1 g/dL; TBIL [1]: 0.3 mg/dL; TC [1]: 70.4 mg/dL; TG [1]: 107.6 mg/dL; TP [1]: 5.9 g/dL; gamma-GTP [1]: 1.8 IU/L; A/G [2]: 2.2; ALP [2]: 680.6 IU/L; ALT [2]: 35.8 IU/L; AST [2]: 60 IU/L; BUN [2]: 21.2 mg/dL; CRE [2]: 0.7 mg/dL; Ca [2]: 10.1 mg/dL; Cl [2]: 106 meq/L; DBIL [2]: 0.022 mg/dL; GLC [2]: 198.8 mg/dL; IP [2]: 6.3 mg/dL; K [2]: 4.6 meq/L; LDH [2]: 95.2 IU/L; Na [2]: 140.4 meq/L; PL [2]: 143.8 mg/dL; RALB [2]: 4.1 g/dL; TBIL [2]: 0.3 mg/dL; TC [2]: 71.4 mg/dL; TG [2]: 129 mg/dL; TP [2]: 6 g/dL; gamma-GTP [2]: 1.6 IU/L; TERMINAL_BW [3]: 233.1 g; APTT [3]: 17.5 s; Bas [3]: 0%; Eos [3]: 1%; Fbg [3]: 209 mg/dL; Hb [3]: 14.5 g/dL; Ht [3]: 42.6%; Lym [3]: 67%; MCH [3]: 21.7 pg; MCHC [3]: 33.9%; MCV [3]: 64 fL; Mono [3]: 10.8%; Neu [3]: 21.6%; PT [3]: 11.6 s; Plat [3]: 130 x10_4/uL; RBC [3]: 666.2 x10_4/ul; Ret [3]: 10.3%; WBC [3]: 119.1 x10_2/uL; KIDNEY_L [3]: 1.1 g; KIDNEY_R [3]: 1.1 g; KIDNEY_TOTAL [3]: 2.2 g; LIVER [3]: 12.4 g; A/G [3]: 2; ALP [3]: 951.2 IU/L; ALT [3]: 41.6 IU/L; AST [3]: 65.6 IU/L; BUN [3]: 17.4 mg/dL; CRE [3]: 0.5 mg/dL; Ca [3]: 10.5 mg/dL; Cl [3]: 104.2 meq/L; DBIL [3]: 0.032 mg/dL; GLC [3]: 197.6 mg/dL; IP [3]: 7.1 mg/dL; K [3]: 4.7 meq/L; LDH [3]: 94.2 IU/L; Na [3]: 140.8 meq/L; PL [3]: 125 mg/dL; RALB [3]: 3.6 g/dL; TBIL [3]: 0.2 mg/dL; TC [3]: 65.4 mg/dL; TG [3]: 59.2 mg/dL; TP [3]: 5.4 g/dL; gamma-GTP [3]: 1 IU/L; TERMINAL_BW [4]: 267.6 g; TERMINAL_BW [5]: 316.7 g; TERMINAL_BW [6]: 405.2 g; APTT [4]: 17 s; Bas [4]: 0%; Eos [4]: 1%; Fbg [4]: 212 mg/dL; Hb [4]: 14.2 g/dL; Ht [4]: 42.3%; Lym [4]: 68.6%; MCH [4]: 20.9 pg; MCHC [4]: 33.7%; MCV [4]: 62.1 fL; Mono [4]: 8.6%; Neu [4]: 21.6%; PT [4]: 11.7 s; Plat [4]: 148.8 x10_4/uL; RBC [4]: 681.8 x10_4/ul; Ret [4]: 3.6%; WBC [4]: 136.5 x10_2/uL; APTT [5]: 17.7 s; Bas [5]: 0%; Eos [5]: 1.4%; Fbg [5]: 221 mg/dL; Hb [5]: 15.2 g/dL; Ht [5]: 44.6%; Lym [5]: 63.8%; MCH [5]: 21.4 pg; MCHC [5]: 34.2%; MCV [5]: 62.6 fL; Mono [5]: 4.4%; Neu [5]: 30.4%; PT [5]: 11.8 s; Plat [5]: 131.1 x10_4/uL; RBC [5]: 712 x10_4/ul; Ret [5]: 4.9%; WBC [5]: 203.6 x10_2/uL; APTT [6]: 16.9 s; Bas [6]: 0%; Eos [6]: 1.6%; Fbg [6]: 228.4 mg/dL; Hb [6]: 15.9 g/dL; Ht [6]: 46.2%; Lym [6]: 72.4%; MCH [6]: 20.4 pg; MCHC [6]: 34.4%; MCV [6]: 59.3 fL; Mono [6]: 4.8%; Neu [6]: 21.2%; PT [6]: 11.7 s; Plat [6]: 140.7 x10_4/uL; RBC [6]: 780.4 x10_4/ul; Ret [6]: 7.8%; WBC [6]: 170.4 x10_2/uL; KIDNEY_L [4]: 1.1 g; KIDNEY_R [4]: 1.2 g; KIDNEY_TOTAL [4]: 2.4 g; KIDNEY_L [5]: 1.4 g; KIDNEY_R [5]: 1.4 g; KIDNEY_TOTAL [5]: 2.8 g; KIDNEY_L [6]: 1.6 g; KIDNEY_R [6]: 1.6 g; KIDNEY_TOTAL [6]: 3.2 g; LIVER [4]: 13.1 g; LIVER [5]: 16 g; LIVER [6]: 18.7 g; A/G [4]: 1.8; ALP [4]: 899 IU/L; ALT [4]: 40.8 IU/L; AST [4]: 66.8 IU/L; BUN [4]: 15.8 mg/dL; CRE [4]: 0.4 mg/dL; Ca [4]: 10.4 mg/dL; Cl [4]: 104 meq/L; DBIL [4]: 0.088 mg/dL; GLC [4]: 194.8 mg/dL; IP [4]: 6.7 mg/dL; K [4]: 4.6 meq/L; LDH [4]: 106.2 IU/L; Na [4]: 139.8 meq/L; PL [4]: 122.2 mg/dL; RALB [4]: 3.7 g/dL; TBIL [4]: 0.3 mg/dL; TC [4]: 62 mg/dL; TG [4]: 52.2 mg/dL; TP [4]: 5.7 g/dL; gamma-GTP [4]: 2.4 IU/L; A/G [5]: 2.6; ALP [5]: 878.4 IU/L; ALT [5]: 33.8 IU/L; AST [5]: 58.8 IU/L; BUN [5]: 16.8 mg/dL; CRE [5]: 0.5 mg/dL; Ca [5]: 10.5 mg/dL; Cl [5]: 105 meq/L; DBIL [5]: 0.034 mg/dL; GLC [5]: 196.8 mg/dL; IP [5]: 6.6 mg/dL; K [5]: 4.4 meq/L; LDH [5]: 82 IU/L; Na [5]: 142.2 meq/L; PL [5]: 125.2 mg/dL; RALB [5]: 4.2 g/dL; TBIL [5]: 0.3 mg/dL; TC [5]: 60.6 mg/dL; TG [5]: 65.8 mg/dL; TP [5]: 5.8 g/dL; gamma-GTP [5]: 1.4 IU/L; A/G [6]: 2.1; ALP [6]: 579.4 IU/L; ALT [6]: 39.4 IU/L; AST [6]: 56 IU/L; BUN [6]: 19 mg/dL; CRE [6]: 0.6 mg/dL; Ca [6]: 9.9 mg/dL; Cl [6]: 104.4 meq/L; DBIL [6]: 0.016 mg/dL; GLC [6]: 196 mg/dL; IP [6]: 5.9 mg/dL; K [6]: 4.6 meq/L; LDH [6]: 86.2 IU/L; Na [6]: 140 meq/L; PL [6]: 121.6 mg/dL; RALB [6]: 4.2 g/dL; TBIL [6]: 0.3 mg/dL; TC [6]: 62.4 mg/dL; TG [6]: 60.4 mg/dL; TP [6]: 6.2 g/dL; gamma-GTP [6]: 1.8 IU/L; TERMINAL_BW [7]: 204.1 g; APTT [7]: 20 s; Bas [7]: 0%; Eos [7]: 1.4%; Fbg [7]: 161.6 mg/dL; Hb [7]: 17.1 g/dL; Ht [7]: 50.4%; Lym [7]: 59.8%; MCH [7]: 21.7 pg; MCHC [7]: 34.1%; MCV [7]: 63.5 fL; Mono [7]: 6.4%; Neu [7]: 32.6%; PT [7]: 16 s; Plat [7]: 119.1 x10_4/uL; RBC [7]: 794.4 x10_4/ul; Ret [7]: 13.3%; WBC [7]: 115.4 x10_2/uL; KIDNEY_L [7]: 1 g; KIDNEY_R [7]: 1 g; KIDNEY_TOTAL [7]: 2 g; LIVER [7]: 10.3 g; A/G [7]: 2.3; ALP [7]: 1108.2 IU/L; ALT [7]: 72.6 IU/L; AST [7]: 190.6 IU/L; BUN [7]: 12.2 mg/dL; CRE [7]: 0.5 mg/dL; Ca [7]: 9.7 mg/dL; Cl [7]: 106.2 meq/L; DBIL [7]: 0.1 mg/dL; GLC [7]: 172.6 mg/dL; IP [7]: 7.6 mg/dL; K [7]: 4.6 meq/L; LDH [7]: 244 IU/L; Na [7]: 139.4 meq/L; PL [7]: 82.8 mg/dL; RALB [7]: 3.4 g/dL; TBIL [7]: 0.3 mg/dL; TC [7]: 46.4 mg/dL; TG [7]: 16 mg/dL; TP [7]: 4.9 g/dL; gamma-GTP [7]: 1.4 IU/L; TERMINAL_BW [8]: 227.8 g; APTT [8]: 21.4 s; Bas [8]: 0.3%; Eos [8]: 3.7%; Fbg [8]: 206 mg/dL; Hb [8]: 16 g/dL; Ht [8]: 46.9%; Lym [8]: 44.7%; MCH [8]: 20.2 pg; MCHC [8]: 34.1%; MCV [8]: 59.2 fL; Mono [8]: 9%; Neu [8]: 42%; PT [8]: 14.7 s; Plat [8]: 109.9 x10_4/uL; RBC [8]: 792.3 x10_4/ul; Ret [8]: 2.8%; WBC [8]: 127.9 x10_2/uL; Bas [9]: 0%; MCHC [9]: 34.2%; KIDNEY_L [8]: 1 g; KIDNEY_R [8]: 1 g; KIDNEY_TOTAL [8]: 2.1 g; KIDNEY_L [9]: 1 g; KIDNEY_TOTAL [9]: 2.1 g; LIVER [8]: 11.3 g; A/G [8]: 1.7; ALP [8]: 739.3 IU/L; ALT [8]: 66 IU/L; AST [8]: 129 IU/L; BUN [8]: 12.7 mg/dL; CRE [8]: 0.4 mg/dL; Ca [8]: 10.1 mg/dL; Cl [8]: 102.3 meq/L; DBIL [8]: 0.0933 mg/dL; GLC [8]: 143 mg/dL; IP [8]: 7.2 mg/dL; K [8]: 3.9 meq/L; LDH [8]: 397.7 IU/L; Na [8]: 136.7 meq/L; PL [8]: 123.7 mg/dL; RALB [8]: 3.6 g/dL; TBIL [8]: 0.3 mg/dL; TC [8]: 95.3 mg/dL; TG [8]: 22.3 mg/dL; TP [8]: 5.7 g/dL; gamma-GTP [8]: 3.7 IU/L; TBIL [9]: 0.3 mg/dL; gamma-GTP [9]: 7 IU/L
